Laboratory results from patent US20160121003A1, “METHODS FOR DIAGNOSING AND […] OF LEWY BODY DEMENTIA BY ASSESSING DOPAMINE T[…]” (Alseres Pharmaceuticals, Inc., priority 2007, published 2016).

Assays:
dopamine transporter [1] = biological target: T1, dopamine transporter (Macaca fascicularis, UniProt Q9GJT6); conditions: monkeys, in vivo and in vitro; density within range reported for the dopamine transporter; cited from earlier work
T1 construct: host or cells: monkey striatum

dopamine transporter [2] = biological target: T2, dopamine transporter (Homo sapiens, UniProt Q01959); conditions: cited from earlier work
dopamine transporter [3] = biological target: T2, dopamine transporter; conditions: in vitro; cited from earlier work
dopamine transporter [4] = biological target: T2, dopamine transporter; experiment: Dynamic SPECT time-activity study in Lewy Body Dementia and control subjects; format: in vivo; set-up: from tissue; host or cells: human brain striatum in vivo (Lewy Body Dementia subjects and controls)
Excerpt: The following example summarizes single photon emission computed tomographic (SPECT) image acquisition, analysis methods for Lewy Body Dementia research participants and healthy controls participating in an ^123I-altropane SPECT imaging study. The experiment is an open label study evaluating time-activity curves and striatal dopamine transporter occupancy over the first hour post bolus injection of ^123I-altropane using temporally well-resolved dynamic SPECT in Lewy Body Dementia subjects and similarly aged healthy control subjects. In addition, for the Lewy Body Dementia subjects, a second injection and scan is performed on each subject on a separate test day to evaluate the test/retest reproducibility data for both visual and quantitative analyses.
Fifteen idiopathic Lewy Body Dementia subjects are recruited through local advertising and word-of-mouth for enrollment in the study. All fifteen subjects complete two separate injection and SPECT scan sessions with approximately […] (8 mCi) of ^123I-altropane. Subjects undergo assessment by a neurology specialist.
Twelve healthy controls subjects are recruited for participation in a single scan session with ^123I-altropane using the identical SPECT image acquisition protocol as the Lewy Body Dementia subjects. Healthy subjects are evaluated by a neurology specialist to confirm the absence of neurologic illness.
SPECT scans are acquired for 60 min following the intravenous injection with […] (8.0 mCi) of ^123I altropane. A series of dynamic SPECT scans are obtained as five scans at 6 minutes per acquisition followed by three scans at 10 minutes per acquisition. The subject remains in the camera for the duration of the acquisition. Each SPECT study is acquired on a Philips PRISM 3000XP triple-headed SPECT camera (Cleveland, Ohio, USA) fitted with fan-beam collimators. Each head rotates 360 degrees, sampling every 3 degrees for a total of 120 raw projection images per head. Projection data are collected in a 128×128 matrix within a symmetric energy window centered at 159 kEv (+/−10%).
Data are re-constructed using filtered back projection and a simple ramp filter followed by a post hoc (3-D) standardized low pass filter. Attenuation correction is performed applying a Chang 0 correction and a mu of 0.11 cm^−1 using a standard or custom software. Regions of interest (ROIs) are placed in the 3-head data scans with individual ROI sampling of the left and right caudate and putamen and an occipital background region. […] The mean striatal SBR scores are calculated as the mean of the left and right caudate and putamen SBR scores. […]
The time-activity data for mean striatal count densities and occipital background for each of the 8 images acquired in the 60 minutes post injection sampling period are plotted to permit visual interrogation of the uptake and washout characteristics of ^123I-altropane in Lew Body Dementia and controls. […] The peak SBR is assessed for each subject for data acquired using 1, 2, and all 3 heads of imaging data. […]

[5] = Safety and tolerability of imaging agent in patients; format: in vivo, human
dopamine transporter [6] = biological target: T2, dopamine transporter; experiment: SPECT imaging of striatal binding potential, Lewy Body Dementia subjects versus controls; format: in vivo; set-up: from tissue; host or cells: human brain striatum in vivo (Lewy Body Dementia subjects and controls)

T2 sequence (Q01959 whole entry): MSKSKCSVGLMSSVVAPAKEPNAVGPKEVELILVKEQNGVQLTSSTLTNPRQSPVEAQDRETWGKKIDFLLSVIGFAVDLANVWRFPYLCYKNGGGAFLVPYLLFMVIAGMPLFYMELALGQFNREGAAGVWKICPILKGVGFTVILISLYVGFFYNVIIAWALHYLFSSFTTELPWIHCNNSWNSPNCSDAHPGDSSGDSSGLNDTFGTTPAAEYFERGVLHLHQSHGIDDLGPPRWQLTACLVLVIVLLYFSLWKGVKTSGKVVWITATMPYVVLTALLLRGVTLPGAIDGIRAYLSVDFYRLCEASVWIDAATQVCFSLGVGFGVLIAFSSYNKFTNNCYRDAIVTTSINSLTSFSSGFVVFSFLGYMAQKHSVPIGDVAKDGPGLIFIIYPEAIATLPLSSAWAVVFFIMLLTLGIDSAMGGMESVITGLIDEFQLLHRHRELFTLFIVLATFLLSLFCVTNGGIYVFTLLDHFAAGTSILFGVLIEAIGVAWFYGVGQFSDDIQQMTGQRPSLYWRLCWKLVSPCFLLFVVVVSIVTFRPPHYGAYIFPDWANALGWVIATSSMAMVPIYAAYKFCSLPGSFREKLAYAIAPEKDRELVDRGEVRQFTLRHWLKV
T1 sequence (Q9GJT6 whole entry): as the sequence (Q01959 whole entry) above, with V24M, I137V, P194S, S198G, D200N, S201G, S202P counted along it

SMILES | regional binding in brain (dopamine transporter [1]) | selectivity for dopamine transporter compared to serotonin transporter (dopamine transporter [2]) | binding site on the dopamine transporter (dopamine transporter [3]) | elimination from the brain (dopamine transporter [4]; most subjects) | safety and tolerability [5] | striatal binding potential versus expected levels for age matched normal individuals (dopamine transporter [6]; Example 1, six Lewy Body Dementia subjects, i.v., SPECT) | uptake in striatum, Lewy Body Dementia subjects versus control adults (dopamine transporter [6]; Example 3) | binding potential, Lewy Body Dementia group versus control group (dopamine transporter [6]; Example 3, 8 LBD and 16 control adults, one-tailed t-test) | test-retest reproducibility of total striatal binding (dopamine transporter [4]; 15 LBD subjects, about 30 minutes commencing 15 minutes after injection) | time post injection by which washout rates from striatum and occipital background are similar (stable striatal binding ratio) (dopamine transporter [4]; bolus injection) | time of peak striatal count densities post injection (dopamine transporter [4]; bolus injection, controls and Lewy Body Dementia subjects) | time of peak SBR post injection (dopamine transporter [4]; one and two imaging head reconstructions)
COC(=O)C1C(c2ccc(F)cc2)CC2CCC1N2C/C=C/I (stereo not drawn) [Altropane, 2β-carbomethoxy-3β-(4′-flurophenyl)-N-(3-iodo-E-allyl) nortropane] | preferentially binds to dopamine rich areas of the striatum | high selectivity | binds to a specific high-affinity site | rapidly eliminate | – | – | – | – | – | – | – | –
COC(=O)[C@H]1[C@@H](c2ccc(F)cc2)C[C@@H]2CC[C@H]1N2C/C=C/[123I] [^123I-Altropane, E-2β-carbomethoxy-3β-(4-fluorophenyl)-N-1(1-iodoprop-1-en-3) nortropane] | – | – | – | – | safe and well tolerated | reduced binding potential | lower | significantly lesser binding potential | demonstrates reproducibility | 20 to 30 min | 10 min | ≥ 15 min
